Results from patent US7648974B1, “19-nor-vitamin D analogs with 3,2-dihydrofuran ring” (Wisconsin Alumni Research Foundation, priority 2008, dated 2010).
“Also recorded” adds a separate entry of the source.

What was measured:
[1] = tested on: Human promyelocytic leukemia (HL60) cells; test: HL-60 differentiation (nitro blue tetrazolium reduction); type: cell-based; conditions: for EC50: Homo sapiens, HL-60, HL60 cells, FIG. 2
Experimental: Serial dilutions were prepared so that a range of drug concentrations could be tested without changing the final concentration of ethanol (≦0.2%) present in the cell cultures.
Human promyelocytic leukemia (HL60) cells were grown in RPMI-1640 medium containing 10% fetal bovine serum. The cells were incubated at 37° C. in the presence of 5% CO2.
HL60 cells were plated at 1.2×10^5 cells/ml. Eighteen hours after plating, cells in duplicate were treated with drug. Four days later, the cells were harvested and a nitro blue tetrazolium reduction assay was performed (Collins et al., 1979; J. Exp. Med. 149:969-974). The percentage of differentiated cells was determined by counting a total of 200 cells and recording the number that contained intracellular black-blue formazan deposits. Verification of differentiation to monocytic cells was determined by measuring phagocytic activity (data not shown).

[2] = tested on: Sprague-Dawley rats; test: Bone calcium mobilization (serum calcium); type: in vivo; conditions: FIG. 4; for serum calcium value: 7,020 pmol/day for 4 consecutive days, ip, low calcium diet (0.02%)
Experimental: (§1) Intestinal Calcium Transport and Bone Calcium Mobilization
(§2) Male, weanling Sprague-Dawley rats were placed on Diet 11 (0.47% Ca) diet+AEK oil for one week followed by Diet 11 (0.02% Ca)+AEK oil for 3 weeks. The rats were then switched to a diet containing 0.47% Ca for one week followed by two weeks on a diet containing 0.02% Ca. Dose administration began during the last week on 0.02% calcium diet. Four consecutive ip doses were given approximately 24 hours apart. Twenty-four hours after the last dose, blood was collected from the severed neck and the concentration of serum calcium determined as a measure of bone calcium mobilization. The first 10 cm of the intestine was also collected for intestinal calcium transport analysis using the everted gut sac method.

[3] = tested on: 24-hydroxylase (24Ohase) gene promoter; test: In vitro transcription assay, luciferase reporter in ROS 17/2.8 (bone) cells; type: cell-based; conditions: ROS 17/2.8 cells, 24-hydroxylase promoter luciferase; FIG. 3; read-out: EC50, transcriptional activity in bone cells
Experimental: In Vitro Transcription Assay
Transcription activity was measured in ROS 17/2.8 (bone) cells that were stably transfected with a 24-hydroxylase (24Ohase) gene promoter upstream of a luciferase reporter gene (Arbour et al., 1998). Cells were given a range of doses. Sixteen hours after dosing the cells were harvested and luciferase activities were measured using a luminometer.
RLU=relative luciferase units.

[4] = biological target: T1, full-length recombinant rat vitamin D receptor (Rattus norvegicus, UniProt P13053)
T1 sequence (P13053 1-423): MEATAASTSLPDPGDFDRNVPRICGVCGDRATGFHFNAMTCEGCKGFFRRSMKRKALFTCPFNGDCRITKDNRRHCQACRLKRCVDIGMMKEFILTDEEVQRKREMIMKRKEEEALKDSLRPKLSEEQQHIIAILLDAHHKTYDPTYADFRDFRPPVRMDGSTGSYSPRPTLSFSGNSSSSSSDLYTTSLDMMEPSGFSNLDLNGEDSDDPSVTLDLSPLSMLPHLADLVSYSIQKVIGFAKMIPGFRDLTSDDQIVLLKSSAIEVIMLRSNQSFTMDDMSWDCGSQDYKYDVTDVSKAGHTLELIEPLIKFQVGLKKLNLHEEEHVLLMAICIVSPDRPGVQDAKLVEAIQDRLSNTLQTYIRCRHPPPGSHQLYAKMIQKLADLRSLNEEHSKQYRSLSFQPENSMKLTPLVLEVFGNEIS
Excerpt: Vitamin D Receptor Binding
Full-length recombinant rat receptor was expressed in E. coli BL21 (DE3) Codon Plus RIL cells and purified to homogeneity using two different column chromatography systems. The first system was a nickel affinity resin that utilizes the C-terminal histidine tag on this protein. The protein that was eluted from this resin was further purified using ion exchange chromatography (S-Sepharose Fast Flow). Aliquots of the purified protein were quick frozen in liquid nitrogen and stored at −80° C. until use. For use in binding assays, the protein was diluted in TEDK50 (50 mM Tris, 1.5 mM EDTA, pH7.4, 5 mM DTT, 150 mM KCl) with 0.1% Chaps detergent.
Radiolabeled and unlabeled ligands were added to 100 mcl of the diluted protein at a final ethanol concentration of ≦10%, mixed and incubated overnight on ice to reach binding equilibrium. The following day, 100 mcl of hydroxylapatite slurry (50%) was added to each tube and mixed at 10-minute intervals for 30 minutes. The hydroxylapaptite was collected by centrifugation and then washed three times with Tris-EDTA buffer (50 mM Tris, 1.5 mM EDTA, pH 7.4) containing 0.5% Titron X-100. After the final wash, the pellets were transferred to scintillation vials containing 4 ml of Biosafe II scintillation cocktail, mixed and placed in a scintillation counter. Total binding was determined from the tubes containing only radiolabeled ligand.

[5] = tested on: Sprague-Dawley rats; test: Intestinal calcium transport (everted gut sac method); type: in vivo; conditions: FIG. 5
Experimental: as §1, §2

| Structure (SMILES) | EC50 [1] [nM] | serum calcium value [2] [mg/dL] | bone calcium mobilization activity (in words) ([2]; in vivo, doses tested) | EC50 [3] [nM] | Ki [4] [nM] | VDR affinity, less potent than 1,25-(OH)2D3 ([4]; relative to 1,25-(OH)2D3) [times] | VDR binding diminished as compared to 1α,25-dihydroxyvitamin D3 ([4]; relative to 1α,25-dihydroxyvitamin D3) [fold] | VDR binding affinity lower than the native hormone ([4]; relative to the native hormone) | HL-60 cell differentiation, less active/potent than 1,25(OH)2D3 ([1]; relative to 1,25(OH)2D3) | potency to promote HL60 cell differentiation, less than calcitriol ([1]; relative to calcitriol) [logs] | intestinal calcium transport activity (in words) ([5]; 780 pmol/day for 4 consecutive days) | intestinal calcium transport activity in vivo (in words) ([5]; in vivo, compared to 1,25-(OH)2D3) |
| --- | --- | --- | --- | --- | --- | --- | --- | --- | --- | --- | --- | --- |
| C=C1/C(=C\C=C2/CCC[C@]3(C)[C@@H]([C@H](C)CCCC(C)(C)O)CC[C@@H]23)C[C@@H](O)C[C@@H]1O [1,25-(OH)2D3, 1α,25-dihydroxyvitamin D3, reference compound] | 3 | 7.9 | increased serum calcium levels at all the dosages tested | 0.2 | – | – | – | – | – | – | – | – |
| C[C@H](CCCC(C)(C)O)C1CCC2/C(=C/C=C3\C[C@@H](O)C4=CCO[C@@H]4C3)CCC[C@@]21C (stereo partly drawn) [B-REV5, 3,2-dihydrofuran-1α,25-dihydroxy-19-nor-vitamin D3] | 1000 | 6.1 | – | 300 | 800 | ~40 | ~10 | approximately 4 orders of magnitude | about 1,000 times | 3 | almost the same activity as 1,25-(OH)2D3 | significant intestinal calcium transport activity; also recorded: about the same potency |
